From BigSolDB 2.1

Nc1ccnc(=O)[nH]1
solubility (mole fraction)
Conditions	288.15 K	293.15 K	298.15 K	303.15 K	308.15 K	313.15 K	318.15 K	323.15 K	328.15 K
in DMSO	–	0.00997	0.0105	0.0111	0.012	0.0129	0.0136	0.0145	0.0155
in ethanol	0.000339	0.000348	0.000372	0.000423	0.000451	0.000497	0.000523	0.000609	0.000692
in isobutanol	0.000144	0.000162	0.000175	0.0002	0.000224	0.000268	0.000309	0.00035	0.000394
in isopentanol	0.000201	0.000221	0.000253	0.000278	0.000308	0.000344	0.000374	0.000415	0.000483
in isopropanol	0.000159	0.000175	0.000187	0.000205	0.00024	0.000283	0.000316	0.000358	0.000412
in methanol	0.000721	0.000808	0.000897	0.000999	0.00112	0.00125	0.00143	0.00159	0.00177
in n-butanol	0.000171	0.000193	0.000221	0.000241	0.000274	0.000301	0.000344	0.000389	0.000439
in n-hexanol	0.000139	0.000153	0.000168	0.000187	0.000213	0.000251	0.00029	0.000337	0.000378
in n-octanol	0.000102	0.000108	0.00012	0.000133	0.000153	0.000188	0.00023	0.000266	0.000304
in n-pentanol	0.000165	0.000185	0.000197	0.000228	0.000254	0.000293	0.00033	0.000369	0.000425
in n-propanol	0.000218	0.000235	0.000273	0.000303	0.000329	0.000373	0.000433	0.000526	0.000588
in sec-butanol	0.000128	0.000137	0.000149	0.000165	0.000191	0.000234	0.000279	0.000321	0.000367
in tert-butanol	–	–	–	0.000269	0.00036	0.000461	0.000706	0.000848	0.00118
in water	0.000768	0.000899	0.00112	0.00145	0.00176	0.00215	0.00261	0.00337	0.00397
